Test results published in patent US6620828B2, “Thiazole compounds and pharmaceutical compositions for inhibiting protein kinases and methods for their use” (Agouron Pharmaceuticals, Inc., priority 1999, dated 2003).
Counter-ions that a name gives are not always drawn. Like-named read-outs stand apart in the source and are kept apart here. Each block holds one molecule with its values, some of them ahead of it.

How the values were obtained:
[1] = molecular target: T1, phosphorylated VEGF-R2Δ50 (FLVK-P) (Homo sapiens, UniProt P35968, DEL940-989/E990V); test: VEGF-R2 coupled spectrophotometric (FLVK-P) assay; type: biochemical; conditions: for Ki: spectrophotometric assay; for inhibition at 1 µM: Table 3; for FLVK-P % inhibition @ 50: at 50, concentration unit not printed (head nM)
T1 construct: VEGF-R2Δ50 contains residues 806-939 and 990-1171; made in house; host or cells: baculovirus/insect cells
T1 sequence (P35968 with tags, fused parts or gaps DEL940-989/E990V limits assumed): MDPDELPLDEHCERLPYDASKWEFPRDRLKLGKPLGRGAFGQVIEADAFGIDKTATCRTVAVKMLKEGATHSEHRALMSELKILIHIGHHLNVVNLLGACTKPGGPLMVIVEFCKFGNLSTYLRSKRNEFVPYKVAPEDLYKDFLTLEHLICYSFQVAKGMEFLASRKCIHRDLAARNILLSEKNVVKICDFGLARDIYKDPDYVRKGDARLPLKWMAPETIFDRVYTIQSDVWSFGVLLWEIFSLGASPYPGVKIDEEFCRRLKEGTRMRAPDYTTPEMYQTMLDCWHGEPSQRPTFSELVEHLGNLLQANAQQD
From the text: VEGF-R2 Construct for Assay: This construct determines the ability of a test compound to inhibit tyrosine kinase activity. A construct (VEGF-R2Δ50) of the cytosolic domain of human vascular endothelial growth factor receptor 2 (VEGF-R2) lacking the 50 central residues of the 68 residues of the kinase insert domain was expressed in a baculovirus/insect cell system. Of the 1356 residues of full-length VEGF-R2, VEGF-R2Δ50 contains residues 806-939 and 990-1171, and also one point mutation (E990V) within the kinase insert domain relative to wild-type VEGF-R2. Autophosphorylation of the purified construct was performed by incubation of the enzyme at a concentration of 4 μM in the presence of 3 mM ATP and 40 mM MgCl2 in 100 mM Hepes, pH 7.5, containing 5% glycerol and 5 mM DTT, at 4° C. for 2 h. […] See Parast et al., Biochemistry, 37, 16788-16801 (1998).
Coupled Spectrophotometric (FLVK-P) Assay
The production of ADP from ATP that accompanies phosphoryl transfer was coupled to oxidation of NADH using phosphoenolpyruvate (PEP) and a system having pyruvate kinase (PK) and lactic dehydrogenase (LDH). The oxidation of NADH was monitored by following the decrease of absorbance at 340 nm (e340=6.22 cm^−1 mM^−1) using a Beckman DU 650 spectrophotometer. Assay conditions for phosphorylated VEGF-R2Δ50 (indicated as FLVK-P in the tables below) were the following: 1 mM PEP; 250 μM NADH; 50 units of LDH/mL; 20 units of PK/mL; 5 mM DTT; 5.1 mM poly(E4Y1); 1 mM ATP; and 25 mM MgCl2 in 200 mM Hepes, pH 7.5. Assay conditions for unphosphorylated VEGF-R2Δ50 (indicated as FLVK in the tables) were the following: 1 mM PEP; 250 μM NADH; 50 units of LDH/mL; 20 units of PK/mL; 5 mM DTT; 20 mM poly(E4Y1); 3 mM ATP; and 60 mM MgCl2 and 2 mM MnCl2 in 200 mM Hepes, pH 7.5. Assays were initiated with 5 to 40 nM of enzyme. Ki values were determined by measuring enzyme activity in the presence of varying concentrations of test compounds. The data were analyzed using Enzyme Kinetic and Kaleidagraph software.

[2] = test system: human umbilical vein endothelial cells (HUVEC); test: HUVEC proliferation assay; type: cell-based; conditions: Homo sapiens, HUVEC; for inhibition at 0.001 µM: 1 nM; for inhibition at 0.01 µM: 10 nM, read-out: % inhibition @ 10 nM
Summary of the method: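 Exponentially growing HUVEC were serum-starved 24 h (F12K + 1% FBS), pre-treated 1 h with compound (0.1% DMSO final), then stimulated with 6 ng/ml VEGF. Proliferation was read 72 h later by MTT reduction (A595). IC50 came from seven 0.5-log concentrations in triplicate; screens gave % inhibition relative to VEGF-only and starved wells.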

[3] = Table II screening results, crude combinatorial amide library
[4] = table following Table II (untitled), crude combinatorial library

Compound: COCOc1cccc(-c2noc(-c3sc(Nc4cc(OC)c(OC)c(OC)c4)nc3N)n2)c1 [B(4), 5-[3-(3-Methoxymethoxy-phenyl)-[1,2,4]oxadiazol-5-yl]-N^2-(3,4,5-trimethoxy-phenyl)-thiazole-2,4-diamine]
Ki ([1]; Table 2): 200 nM

Compound: CC(C)(C)OC(=O)Nc1cccc(-c2noc(-c3sc(Nc4cccc(C#N)c4)nc3N)n2)c1 [B(40)]
inhibition at 1 µM [1]: 31%

Compound: COc1cc(Nc2nc(N)c(-c3nc(-c4cccc(NC(C)=O)c4)cs3)s2)cc(OC)c1OC [D(1), N-{3-[4′-Amino-2′-(3,4,5-trimethoxy-phenylamino)-[2,5′]bithiazolyl-4-yl]-phenyl}acetamide]
Ki ([1]; Table 1): 46 nM

Compound: COc1cc(Nc2nc(N)c(-c3nc(-c4cccc(NS(=O)(=O)Cc5ccccc5)c4)cs3)s2)cc(OC)c1OC [D(2), N-{3-[4′-Amino-2′-(3,4,5-trimethoxy-phenylamino)-[2,5′]bithiazolyl-4-yl]-phenyl}-C-phenyl-methanesulfonamide]
Ki ([1]; Table 1): 98 nM

Compound: COc1cc(Nc2nc(N)c(-c3nc(-c4cccc(NC(=O)c5cc(Cl)ccn5)c4)cs3)s2)cc(OC)c1OC [D(11), 4-Chloro-pyridine-2-carboxylic acid {3-[4′-amino-2′-(3,4,5-trimethoxy-phenylamino)-[2,5′]bithiazolyl-4-yl]-phenyl}-amide]
Ki ([1]; Table 1): 1.9 nM

Compound: COc1cc(Nc2nc(N)c(-c3nc(-c4cccc(NC(=O)CCc5ccccc5)c4)cs3)s2)cc(OC)c1OC [D(16), N-{3-[4′-Amino-2′-(3,4,5-trimethoxy-phenylamino)-[2,5′]bithiazolyl-4-yl]-phenyl}-3-phenyl-propionamide]
Ki ([1]; Table 1): 11.8 nM

Compound: COc1cc(Nc2nc(N)c(-c3nc(-c4cccc(NC(=O)c5ccc(F)cc5)c4)cs3)s2)cc(OC)c1OC [D(28), N-{3-[4′-Amino-2′-(3,4,5-trimethoxy-phenylamino)-[2,5′]bithiazolyl-4-yl]-phenyl}-4-fluoro-benzamide]
Ki ([1]; Table 1): 6 nM

Compound: COc1cc(Nc2nc(N)c(-c3nc(-c4cccc(NC(=O)c5ccc(C)c(C)c5)c4)cs3)s2)cc(OC)c1OC [D(31), N-{3-[4′-Amino-2′-(3,4,5-trimethoxy-phenylamino)-[2,5′]bithiazolyl-4-yl]-phenyl}-3,4-dimethyl-benzamide]
Ki ([1]; Table 1): 4.8 nM

Compound: Nc1nc(Nc2cccnc2)sc1-c1nc(-c2cccc(NC(=O)c3cccc(Cl)c3)c2)no1 [D(52), 3-[3-(3-Chlorobenzamido)phenyl]-5-[2-(3-aminopyridyl)-4-amino-5-thiazolyl]-1,2,4-oxadiazole]
FLVK-P % inhibition @ 50 ([1]; Table 1): 27% @

Compound: COc1cc(Nc2nc(N)c(-c3nc(-c4cccc(NC(=O)c5cnc(C)s5)c4)cs3)s2)cc(OC)c1OC [D(53), 2-Methyl-thiazole-5-carboxylic acid {3-[4′-amino-2′-(3,4,5-trimethoxy-phenylamino)-[2,5′]bithiazolyl-4-yl]-phenyl}-amide]
Ki ([1]; Table 1): 2.5 nM

Compound: COc1cc(Nc2nc(N)c(-c3nc(-c4cccc(NC(=O)c5cccc(Cl)n5)c4)cs3)s2)cc(OC)c1OC [D(54), 6-Chloro-pyridine-2-carboxylic acid {3-[4′-amino-2′-(3,4,5-trimethoxy-phenylamino)-[2,5′]bithiazolyl-4-yl]-phenyl}-amide]
Ki ([1]; Table 1): 6.3 nM

Compound: COc1cc(Nc2nc(N)c(-c3nc(-c4cccc(NC(=O)c5ccnc(Cl)c5)c4)cs3)s2)cc(OC)c1OC [D(55), N-{3-[4′-Amino-2′-(3,4,5-trimethoxy-phenylamino)-[2,5′]bithiazolyl-4 yl]-phenyl}-2-chloro-isonicotinamide]
Ki ([1]; Table 1): 6.3 nM

Compound: CNC(=O)Nc1nc(N)c(-c2nc(-c3cccc(NC(=O)c4cccc(OC)c4)c3)cs2)s1 [drawing 1034]
inhibition at 0.001 µM [2, 3]: 2%
inhibition at 0.01 µM [2, 3]: 91%

Compound: COc1cccc(C(=O)Nc2ccc(C)c(-c3noc(-c4sc(Nc5cc(OC)c(OC)c(OC)c5)nc4N)n3)c2)c1 [drawing 1122]
inhibition at 0.001 µM [2, 4]: 35%
inhibition at 0.01 µM [2, 4]: 94%

More lines, main results first:

FLVK-P % inhibition @ 20 ([1]; Table 2, at 20 (head μM)): 71% @
Compound: COc1cc(Nc2nc(N)c(C3=NC(c4ccc(Br)cc4)CO3)s2)cc(OC)c1OC (racemic) [I(12), (R/S)-5-[4-(4-Bromo-phenyl)-4,5-dihydro-oxazol-2-yl]-N^2-(3,4,5-trimethoxy-phenyl)-thiazole-2,4-diamine]

Ki ([1]; Table 1): 0.81 nM
Compound: COc1cc(Nc2nc(N)c(-c3nc(-c4cccc(NC(=O)c5cc(C)cc(C)c5)c4)no3)s2)cc(OC)c1OC [D(56), N-(3-{5-[4-Amino-2-(3,4,5-trimethoxy-phenylamino)-thiazol-5-yl]-[1,2,4]oxadiazol-3-yl}-phenyl)-3,5-dimethyl-benzamide trifluoroacetate salt]

Ki ([1]; Table 1): 18 nM
Compound: COc1cc(Nc2nc(N)c(-c3nc(-c4cccc(NC(=O)c5ccccc5C)c4)no3)s2)cc(OC)c1OC [D(57), N-(3-{5-[4-Amino-2-(3,4,5-trimethoxy-phenylamino)-thiazol-5-yl]-[1,2,4]oxadiazol-3-yl}-phenyl)-2-methyl-benzamide trifluoroacetate salt]

inhibition at 1 µM [1]: 9%
Compound: N#Cc1cccc(Nc2nc(N)c(-c3nc(-c4cccc(NC(=O)c5cccc(Cl)c5)c4)no3)s2)c1 [D(78)]

Ki ([1]; Table 1): 80 nM
Compound: COC(=O)Nc1nc(N)c(-c2nc(-c3cccc(NC(=O)c4ccc(Cl)s4)c3)cs2)s1 [F(3), (4′-Amino-4-{3-[(5-chloro-thiophene-2-carbonyl)-amino]-phenyl}-[2,5′]bithiazolyl-2′-yl)-carbamic acid methyl ester]

FLVK-P % inhibition @ 50 ([1]; Table 1): 33% @
Compound: CC(=O)Nc1nc(N)c(-c2nc(-c3cccc(NC(=O)c4cccc(Cl)c4)c3)no2)s1 [F(4), N-{3-[5-(2-Acetylamino-4-amino-thiazol-5-yl)-[1,2,4]oxadiazol-3-yl]-phenyl}-3-chloro-benzamide]

FLVK-P % inhibition @ 50 ([1]; Table 1): 31% @
Compound: Nc1nc(NC(=O)c2cccs2)sc1-c1nc(-c2cccc(NC(=O)c3cccc(Cl)c3)c2)no1 [F(5), Thiophene-2-carboxylic acid (4-amino-5-{3-[3-(3-chloro-benzoylamino)-phenyl]-[1,2,4]oxadiazol-5-yl}-thiazol-2-yl)-amide]

FLVK-P % inhibition @ 50 ([1]; Table 1): 34% @
Compound: CCC(=O)Nc1nc(N)c(-c2nc(-c3cccc(NC(=O)c4cccc(Cl)c4)c3)no2)s1 [F(6), N-{3-[5-(4-Amino-2-propionylamino-thiazol-5-yl)-[1,2,4]oxadiazol-3-yl]-phenyl}-3-chloro-benzamide]

Ki ([1]; Table 1): 114 nM
Compound: Nc1nc(NC(=O)c2ccccc2)sc1-c1nc(-c2cccc(NC(=O)c3cccc(Cl)c3)c2)no1 [F(7), N-{3-[5-(4-amino-2-benzoylamino-thiazol-5-yl)-[1,2,4]oxadiazol-3-yl]-phenyl}-3-chloro-benzamide]

Ki ([1]; Table 1): 1.9 nM
Compound: CNC(=O)Nc1nc(N)c(-c2nc(-c3cccc(NC(=O)c4cccc(C)c4)c3)no2)s1 [F(8), N-(3-[5-[4-Amino-2-(3-methyl-ureido)-thiazol-5-yl]-[1,2,4]oxadiazol-3-yl}-phenyl)-3-methyl-benzamide]
IC50 ([2]; Table 1): 22 nM

Ki ([1]; Table 2): 83 nM
Compound: COc1cc(Nc2nc(N)c(C3=NC(c4cccc(O)c4)CO3)s2)cc(OC)c1OC (stereo not drawn) [I(9), S-3-{2-[4-Amino-2-(3,4,5-trimethoxy-phenylamino)-thiazol-5-yl]-4,5-dihydro-oxazol-4-yl}-phenol]

Ki ([1]; Table 2): 530 nM
Compound: COc1cc(Nc2nc(N)c(C3=NC(c4ccc(O)cc4)CO3)s2)cc(OC)c1OC (stereo not drawn) [I(11), S-4-{2-[4-Amino-2-(3,4,5-trimethoxy-phenylamino)-thiazol-5-yl]-4,5-dihydro-oxazol-4-yl}-phenol]

inhibition at 100 µM ([1]; Table 2, at 100 μM): 46%
Compound: COc1cc(Nc2nc(N)c(C3=NC(c4ccc5ccccc5c4)CO3)s2)cc(OC)c1OC (stereo not drawn) [I(20)]
